According to paper PMC7824103 (Viruses, 2020):
Read-outs that look alike come from different tables or passages of the source.

Legend:
[1] = test system: HEK 293T cells
[2] = in vitro; details: human
[3] = test system: Ebola virus/H.sapiens-tc/GIN/2014/Makona-C05 (EBOV); experiment: organism not typed; format: cell-based
[4] = test system: EBOV; experiment: microbe, parasite or virus in culture; format: cell-based, Ebola virus; details: Zaire ebolavirus
[5] = test system: Marburg virus/H. sapiens-tc/AGO/2005/Angola-1379v (MARV); experiment: organism not typed; format: cell-based
[6] = test system: Lassa virus strain Josiah (LASV); experiment: microbe, parasite or virus in culture; format: cell-based; details: read-out: Max at conc (percent inhibition)
[7] = test system: recombinant cowpox virus expressing GFP (rCPXV-GFP); experiment: microbe, parasite or virus in culture; format: cell-based; details: read-out: Max at conc (percent inhibition)
[8] = test system: recombinant vaccinia virus expressing GFP (rVACV-GFP); experiment: organism not typed; format: cell-based
[9] = test system: HIV-1 particles pseudotyped with VSIV G; format: cell-based, human immunodeficiency virus 1
[10] = test system: EBOV L (RdRp) activity; experiment: cells; format: cell-based, Ebola virus; details: for IC50: Zaire ebolavirus, HEK293T/17, 24 h, read-out: IC50 (minigenome luciferase)
[11] = test system: EBOV; experiment: microbe, parasite or virus in culture; format: cell-based, Ebola virus; details: Zaire ebolavirus; for IC50: read-out: Huh7 IC50; for IC90: read-out: Huh7 IC90
[12] = test system: HEK 293T/T17 cells; details: human
[13] = test system: herpes simplex virus 1; details: cited from earlier work
[14] = test system: herpes simplex virus 2; details: cited from earlier work
[15] = test system: vesicular stomatitis Indiana virus; details: cited from earlier work
[16] = test system: human parainfluenza virus 3; details: cited from earlier work
[17] = test system: coxsackie virus B4; details: cited from earlier work
[18] = test system: poliovirus 1; details: cited from earlier work
[19] = test system: Sindbis virus; details: cited from earlier work
[20] = test system: vaccinia virus; details: cited from earlier work
[21] = test system: reovirus type 1; details: cited from earlier work
[22] = in vitro
[23] = test system: patients; details: human, in vivo; cited from earlier work
[24] = test system: African green monkeys; details: monkey, in vivo; cited from earlier work
[25] = mouse, in vivo; cited from earlier work
[26] = read-out: Max at conc (percent inhibition)
[27] = Orthopoxvirus vaccinia, read-out: Max at conc (percent inhibition)

Compound: sangivamycin HCl [NSC 143648]
- CC50 [1]: > 60000 nM

Compound: COc1cc(NS(C)(=O)=O)ccc1Nc1c2ccccc2nc2ccccc12 [NSC 249992]
- CC50 [2]: 22000 nM

Compound: NC(=O)c1cn([C@@H]2O[C@H](CO)[C@@H](O)[C@H]2O)c2ncnc(N)c12 [Sangivamycin, 4-amino-7-(β-D-ribofuranosyl)pyrrolo[2,3-d]pyrimidine-5-carboxamide]
- IC50 [3]: 110 ± 8 nM
- IC50 ([3]; Zaire ebolavirus): 60 ± 3 nM
- IC50 ([3]; Zaire ebolavirus, read-out: IC50 values (range across cell types)): 40 to 100 nM
- inhibition at 0.6 µM ([3]; Zaire ebolavirus, read-out: Max at conc (percent inhibition)): 100%
- IC50 [4]: 60 ± 3 nM
- inhibition at 0.15 µM [4, 26]: 100%
- IC50 ([5]; read-out: IC50 values (range across cell types)): 100 to 300 nM
- inhibition at 0.6 µM [5, 26]: 100%
- inhibition at 0.3 µM [6]: 104%
- inhibition at 0.6 µM [6]: 99.7%
- inhibition at 0.6 µM [7]: 97%
- IC50 [8]: > 4 nM
- IC50 ([8]; Orthopoxvirus vaccinia): 20 ± 4 nM
- inhibition at 0.075 µM [8, 27]: 98%
- inhibition at 0.3 µM [8, 27]: 95.4%
- HIV-1 pseudotype transduction [9]: did not affect
- IC50 of constant ratio S:R, relative to sangivamycin concentration [10]: 46.4 nM
- reduction of luciferase activity vs untreated control [10]: greater than 80%
- IC50 [10]: 46.4 nM
- IC50 ([11]; Huh-7, 1 h): 103 nM
- IC90 ([11]; Huh-7, 1 h): 148 nM
- IC50 ([11]; Huh-7, 2 h): 106 nM
- IC90 ([11]; Huh-7, 2 h): 143 nM
- IC50 ([11]; Huh-7, 4 h): 57 nM
- IC90 ([11]; Huh-7, 4 h): 132 nM
- IC50 ([11]; Huh-7, 8 h): 72.1 nM
- IC90 ([11]; Huh-7, 8 h): 163 nM
- IC50 ([11]; Huh-7, 24 h): 64.1 nM
- IC90 ([11]; Huh-7, 24 h): 236 nM
- cytotoxicity [12]: approximately 30%
- IC50 [13]: 226 nM
- IC50 [14]: 226 nM
- IC50 [15]: 65 nM
- IC50 [16]: 65 nM
- IC50 [17]: 129 nM
- IC50 [18]: 226 nM
- IC50 [19]: 646 nM
- IC50 [20]: 65 nM
- IC50 [21]: 323 nM
- CC50 [22]: > 600 nM
- activity against cancer in clinical trials [23]: inactive
- tolerability in patients [23]: well tolerated
- tolerability [24]: tolerated
- tissue retention [25]: retained in tissues for days

Compound: CCc1nc(N)nc(N)c1-c1ccc(Cl)cc1 [NSC 3061]
- CC50 [2]: 22000 nM

Compound: COc1cc(Cc2cnc(N)nc2N)cc(OC)c1OC [NSC 106568]
- CC50 [2]: > 60000 nM

Compound: CCC(CC)COC(=O)[C@H](C)N[P@](=O)(OC[C@H]1O[C@@](C#N)(c2ccc3c(N)ncnn23)[C@H](O)[C@@H]1O)Oc1ccccc1 [Remdesivir, remdesivir, reference compound]
- IC50 of constant ratio S:R, relative to remdesivir concentration [10]: 1,444 nM
- IC50 [10]: 1440 nM
- IC50 ([11]; Huh-7, 1 h): 87.7 nM
- IC90 ([11]; Huh-7, 1 h): 180 nM
- IC50 ([11]; Huh-7, 2 h): 74.6 nM
- IC90 ([11]; Huh-7, 2 h): 154 nM
- IC50 ([11]; Huh-7, 4 h): 105 nM
- IC90 ([11]; Huh-7, 4 h): 188 nM
- IC50 ([11]; Huh-7, 8 h): 116 nM
- IC90 ([11]; Huh-7, 8 h): 224 nM
- IC50 ([11]; Huh-7, 24 h): 117 nM
- IC90 ([11]; Huh-7, 24 h): 231 nM

Compound: NSC 133071
- CC50 [1]: > 60000 nM

Compound: CN(Cc1cnc2nc(N)nc(N)c2n1)c1ccc(C(=O)N[C@@H](CCC(=O)O)C(=O)O)cc1 [NSC 740]
- CC50 [2]: 130 nM

Compound: C#CCC(Cc1cnc2nc(N)nc(N)c2n1)c1ccc(C(=O)N[C@@H](CCC(=O)O)C(=O)O)cc1 (stereo partly drawn) [NSC 754230]
- CC50 [2]: 4 nM
